Measured values taken from patent US20230027066A1 (Urovant Sciences GmbH, priority 2019, published 2023).

Test system: men and women with overactive bladder
Assay: Phase 3 study of vibegron 75 mg vs placebo and tolterodine ER 4 mg, 12 weeks, efficacy (voiding and urine volume diary)
Format: in vivo, human
Details: for Patients with at Least 50% Reduction in Urgency Episodes, Adjusted n / Patients with at Least 50% Reduction in Urgency Episodes, Unadjusted (%) / Patients with at Least 50% Reduction in Urgency Episodes, Unadjusted n / Urgency 50% responders, Active - Placebo CMH Difference / Patients with at Least 50% Reduction in Urgency Episodes, Adjusted (%): Dry population; for Urgency Episodes, Week 12 CFB Mean: descriptive statistics; for Micturitions: LS Mean (95% CI): Table 32, week 12
Description: Enrollment of patients included individuals with OAB Wet (those with UUI, the involuntary loss of urine accompanied by urgency) and OAB Dry (those without UUI). A total of 1,518 patients were randomized across 215 study sites into one of three groups for a 12-week treatment period.
The study consisted of a Screening Period (1 to 5 weeks), a single-blind Run-in Period (2 weeks), a randomized double-blind Treatment Period (12 weeks), and a Follow-up Period (4 weeks).
Tolterodine ER 4 mg was the active control. […] Between the Baseline and Week 12 Visits, patients had study assessments at Week 4 and Week 8.
The Patient Voiding Diary was used by participants (via the eDiary or paper Diary) to record the frequency of daily OAB symptoms including all micturitions, urgency, incontinence, and main reason for incontinence by selecting the respective box for each symptom occurring during the course of a given day and night.
Urine volume data were collected separately by patients using the Urine Volume component of the eDiary, or the paper Urine Volume Chart. The Urine Volume Chart is a tool used in clinical practice and clinical investigation to assess voiding functions over a 24-hour period and is regarded as a useful instrument in the investigation of patients with voiding symptoms. Urine volume may be collected during any one (1) of the 7 Diary Days prior to the visit, and it should be recorded for ˜24 hours starting from the time the patient gets up for the day and continues until the time the patient gets up for the day on the next day.
For the purpose of this study, the number of micturitions was defined as the number of times a patient has voided in the toilet as indicated on the Patient Voiding Diary. Average daily micturitions were calculated using the daily entries in the Patient Voiding Diary, which was completed over the 7 days prior to each study visit. Average daily number of micturitions were calculated as the total number of micturitions that occurred on a Complete Diary Day divided by the number of Complete Diary Days in the Patient Voiding Diary. A complete diary day required confirmation by the patient in the Patient Voiding Diary that all voids and leakages had been recorded for the diary day. Baseline was defined as the average number of micturitions occurring during the last evaluable diary prior to the Baseline Visit.
The number of UUI episodes was defined as the number of times a patient had checked “urge” as the reason for accidental urine leakage. Average daily UUI episodes at each study visit were calculated in the same manner as described above for the micturition endpoint. The UUI endpoint were analyzed using only OAB Wet patients.
For the analysis of the co-primary endpoints (change from baseline in average number of daily micturitions at Week 12 and change from baseline in average number of daily urge urinary incontinence episodes at Week 12, and placebo adjustment of each), a mixed model for repeated measure (MMRM) with restricted maximum likelihood estimation was used. This model corrects for dropout and accounts for the fact that measurements taken on the same patient over time tend to be correlated by using all available information on patients within the same covariate set to derive an estimate of the treatment effect for a dropout-free population. The analysis model for each efficacy endpoint includes terms for treatment, visit, OAB Type (Wet vs Dry), Sex (Female vs Male), Region (US vs Rest of World), baseline score, and interaction of visit by treatment.
Primary inferences were drawn from treatment differences for the changes from baseline derived from the MMRM models at Week 12. As part of secondary objectives, the treatment differences for each post baseline visit were also derived using the same MMRM model. […]

[1] = No prior anticholinergic use during the prior 12 months
[2] = No prior mirabegron use during the prior 12 months
[3] = Overall, events of Events/Censored
[4] = Prior anticholinergic use during the prior 12 months
[5] = Prior mirabegron use during the prior 12 months
[6] = Week 2, events of Events/Censored
[7] = Week 4, events of Events/Censored

For `O=C(Nc1ccc(C[C@@H]2CC[C@H]([C@H](O)c3ccccc3)N2)cc1)[C@@H]1CCc2nccc(=O)n21` [Vibegron, (6S)-N-[4-[[(2S,5R)−5-[(R)-hydroxy(phenyl)methyl]pyrrolidin−2-yl]methyl]phenyl]−4-oxo−7,8-dihydro−6H-pyrrolo[1,2-a]pyrimidine−6-carboxamide], which “Patients with at Least 50% Reduction in Urgency Episodes, Adjusted n” value (baseline to Week 4) is on record?
The value was 28.

What about the “Patients with at Least 50% Reduction in Urgency Episodes, Unadjusted (%)” value (baseline to Week 4) of the same compound?
Its value is 25.2%.

And the “Patients with at Least 50% Reduction in Urgency Episodes, Unadjusted n” value (baseline to Week 4)?
Its value is 31.

And the “Urgency 50% responders, Active - Placebo CMH Difference” value (baseline to Week 4)?
The value was 5.4.

And the “Patients with at Least 50% Reduction in Urgency Episodes, Adjusted (%)” value (baseline to Week 8)?
Its value is 31.9%.

What about the “Patients with at Least 50% Reduction in Urgency Episodes, Adjusted n” value (baseline to Week 8) of the same compound?
Its value is 39.

What about the “Patients with at Least 50% Reduction in Urgency Episodes, Unadjusted (%)” value (baseline to Week 8) of the same compound?
Its value is 35.0%.

What about the “Patients with at Least 50% Reduction in Urgency Episodes, Unadjusted n” value (baseline to Week 8) of the same compound?
Its value is 43.

What about the “Urgency 50% responders, Active - Placebo CMH Difference” value (baseline to Week 8) of the same compound?
Its value is 12.4.

What about the “Patients with at Least 50% Reduction in Urgency Episodes, Adjusted (%)” value (baseline to Week 12) of the same compound?
The value was 36.9%.

And the “Patients with at Least 50% Reduction in Urgency Episodes, Adjusted n” value (baseline to Week 12)?
Its value is 45.

What about the “Patients with at Least 50% Reduction in Urgency Episodes, Unadjusted (%)” value (baseline to Week 12) of the same compound?
The value was 43.1%.

What about the “Patients with at Least 50% Reduction in Urgency Episodes, Unadjusted n” value (baseline to Week 12) of the same compound?
Its value is 53.

And the “Urgency 50% responders, Active - Placebo CMH Difference” value (baseline to Week 12)?
The value was 13.9.

And the “Urgency Episodes, Week 12 CFB Mean” value (Males with BPH)?
Its value is −1.90.

And the “Urgency Episodes, Week 12 CFB Mean” value (Males without BPH)?
Its value is −2.56.

And the “Urgency Episodes, Week 12 CFB Mean” value (No Prior ACH Use in last 12 Mo.)?
The value was −3.00.

What about the “Urgency Episodes, Week 12 CFB Mean” value (No Prior B3 Agonist Use in last 12 Mo.) of the same compound?
Its value is −2.94.

What about the “Micturitions, 12-week change” value [1] of the same compound?
The value was −2.1.

And the “UUI Episodes, 12-week change” value [1]?
The value was −2.1.

What about the “Micturitions, 12-week change” value [2] of the same compound?
The value was −2.0.

And the “UUI Episodes, 12-week change” value [2]?
The value was −2.0.

And the “Overall Time to First 50% Decrease in Urgency Episodes, 25th Percentile” value (Overall)?
Its value is 4.1 weeks.

What about the “Overall Time to First 50% Decrease in Urgency Episodes, 50th Percentile” value (Overall) of the same compound?
The value was 12.3 weeks.

What about the “Overall Time to First 50% Decrease in Urgency Episodes, Median (95% CI)” value (Overall) of the same compound?
Its value is 12.3 (12.1 to 12.6) weeks.

And the “Overall Time to First 100% Decrease in UUI Episodes, 25th Percentile” value (Overall)?
The value was 8.1, NE weeks.

What about the “Overall Time to First 100% Decrease in UUI Episodes, Median (95% CI)” value (Overall) of the same compound?
Its value is 13.3 (12.9 to NE) weeks.

What about the “Urgency Episodes, Week 12 CFB Mean” value (Overall) of the same compound?
Its value is −2.93.

And the “First 50% Decrease in Urgency Episodes, Events” value [3]?
The value was 256/270.

What about the “First 100% Decrease in UUI Episodes, Events” value [3] of the same compound?
Its value is 146/257.

What about the “Urgency Episodes, Week 12 CFB Mean” value (Prior ACH Use in last 12 Mo.) of the same compound?
Its value is −2.50.

What about the “Urgency Episodes, Week 12 CFB Mean” value (Prior B3 Agonist Use in last 12 Mo.) of the same compound?
The value was −2.56.

What about the “Micturitions, 12-week change” value [4] of the same compound?
The value was −1.97.

What about the “UUI Episodes, 12-week change” value [4] of the same compound?
Its value is −1.46.

And the “Micturitions, 12-week change” value [5]?
Its value is −2.83.

And the “UUI Episodes, 12-week change” value [5]?
The value was −1.64.

And the “Micturitions: LS Mean (95% CI)” value (Age <65 years)?
Its value is −0.2 (−0.6 to 0.2).

What about the “Micturitions: LS Mean (95% CI)” value (Age ≥65 years) of the same compound?
Its value is −0.9 (−1.3 to −0.4).

What about the “Micturitions: LS Mean (95% CI)” value (Age ≥75 years (posthoc analysis)) of the same compound?
Its value is −1.0 (−1.8 to −0.1).

And the “Micturitions: LS Mean (95% CI)” value (Females)?
Its value is −0.5 (−0.8 to −0.2).

And the “Micturitions: LS Mean (95% CI)” value (Males)?
Its value is −0.6 (−1.4 to 0.1).

What about the “Micturitions: LS Mean (95% CI)” value (Non-White) of the same compound?
Its value is −0.5 (−1.2 to 0.1).

And the “Micturitions: LS Mean (95% CI)” value (OAB Type: Dry)?
Its value is −0.7 (−1.4 to −0.1).

And the “Micturitions: LS Mean (95% CI)” value (OAB Type: Wet)?
The value was −0.5 (−0.8 to −0.1).

And the “Micturitions: LS Mean (95% CI)” value (Overall)?
Its value is −0.5 (−0.8 to −0.2).

And the “Micturitions: LS Mean (95% CI)” value (Region: Non-US)?
Its value is −0.4 (−1.4 to 0.5).

What about the “Micturitions: LS Mean (95% CI)” value (Region: US) of the same compound?
Its value is −0.5 (−0.8 to −0.2).

And the “Micturitions: LS Mean (95% CI)” value (White)?
The value was −0.5 (−0.8 to −0.2).

And the “Average Daily Number of Total Incontinence, Mean (SD)” value (Week 2)?
Its value is 2.53 (3.118).

What about the “Average daily number of urgency episodes, Mean (SD)” value (Week 2) of the same compound?
Its value is 6.47 (4.458).

And the “Average volume voided per micturition, Active - Placebo LS Mean Difference” value (Week 2)?
The value was 11.9 mL.

What about the “Change from Baseline in Average Daily Number of Total Incontinence, LS Mean (SE)” value (“Change … of Total Incontinence, LS Mean (SE)” for short) (Week 2) of the same compound?
Its value is −1.6 (0.14).

What about the “Change from baseline in average daily number of urgency episodes, LS Mean” value (“Change … of urgency episodes, LS Mean” for short) (Week 2) of the same compound?
Its value is −1.5.

And the “Change from baseline in average volume voided per micturition, LS Mean (SE)” value (Week 2)?
Its value is 14.2 (3.02) mL.

What about the “Estimated Incidence of Subjects with 50% Decrease from Baseline (urgency episodes)” value (Week 2) of the same compound?
The value was 19.6.

And the “Estimated Incidence of Subjects with 100% Decrease from Baseline (UUI episodes)” value (Week 2)?
The value was 7.4.

And the “Total Incontinence, Active - Placebo LS Mean Difference (SE)” value (Week 2)?
The value was −0.7 (0.14).

And the “Urgency episodes, Active - Placebo LS Mean Difference” value (Week 2)?
Its value is −0.6.

What about the “First 50% Reduction in Urgency Episodes, Events” value [6] of the same compound?
The value was 103/423.

What about the “First 100% Reduction in UUI Episodes, Events” value [6] of the same compound?
Its value is 30/373.

And the “Average volume voided per micturition, Week 2 Mean (SD)” value (Week 2, vibegron 75 mg, tolterodine ER 4 mg)?
The value was 165.6 (74.26) mL.

And the “Average Daily Number of Total Incontinence, Mean (SD)” value (Week 4)?
The value was 2.28 (3.239).

And the “Average daily number of urgency episodes, Mean (SD)” value (Week 4)?
The value was 6.02 (4.458).

What about the “Average volume voided per micturition, Active - Placebo LS Mean Difference” value (Week 4) of the same compound?
Its value is 14.5 mL.

What about the “Average volume voided per micturition, Week 4 Mean (SD)” value (Week 4) of the same compound?
The value was 172.6 (76.57) mL.

What about the “Change … of Total Incontinence, LS Mean (SE)” value (Week 4) of the same compound?
The value was −1.9 (0.14).

And the “Change … of urgency episodes, LS Mean” value (Week 4)?
Its value is −1.9.

What about the “Change from baseline in average volume voided per micturition, LS Mean (SE)” value (Week 4) of the same compound?
The value was 18.9 (3.15) mL.

What about the “Estimated Incidence of Subjects with 50% Decrease from Baseline (urgency episodes)” value (Week 4) of the same compound?
The value was 21.1.

And the “Estimated Incidence of Subjects with 100% Decrease from Baseline (UUI episodes)” value (Week 4)?
Its value is 9.2.

What about the “Total Incontinence, Active - Placebo LS Mean Difference (SE)” value (Week 4) of the same compound?
Its value is −0.8 (0.14).

And the “Urgency episodes, Active - Placebo LS Mean Difference” value (Week 4)?
Its value is −0.8.

And the “First 50% Reduction in Urgency Episodes, Events” value [7]?
The value was 111/415.

What about the “First 100% Reduction in UUI Episodes, Events” value [7] of the same compound?
The value was 37/366.

And the “Average Daily Number of Total Incontinence, Mean (SD)” value (Week 8)?
Its value is 2.05 (3.245).

And the “Average daily number of urgency episodes, Mean (SD)” value (Week 8)?
The value was 5.58 (4.399).

What about the “Average volume voided per micturition, Active - Placebo LS Mean Difference” value (Week 8) of the same compound?
Its value is 18.3 mL.

And the “Average volume voided per micturition, Week 8 Mean (SD)” value (Week 8)?
The value was 173.4 (81.95) mL.

And the “Change … of Total Incontinence, LS Mean (SE)” value (Week 8)?
Its value is −2.1 (0.15).

What about the “Change … of urgency episodes, LS Mean” value (Week 8) of the same compound?
The value was −2.4.
